These results are taken from patent US20240010640A1, “ANTAGONISTS OF THE MUSCARINIC ACETYLCHOLINE RECEPTOR M4” (Vanderbilt University, priority 2020, published 2024).

In test [1] the test system is catalepsy induced by the DA receptor antagonist haloperidol. The conditions noted are these: cited from earlier work.
Another test concerns M4 knockout mice. The conditions noted are these: but not the other four mAChR subtypes; cited from earlier work.
The target in another test is T1, Human M4 (Homo sapiens, UniProt P08173).
T1 construct: Human or rat M4 cDNA, along with the chimeric G protein Gqi5, were transfected into Chinese hamster ovary (CHO-K1) cells; expressed in transfected cells; host or cells: CHO-K1 (Chinese hamster ovary, ATCC), stably expressing M4 and Gqi5
T1 sequence (P08173 1-479): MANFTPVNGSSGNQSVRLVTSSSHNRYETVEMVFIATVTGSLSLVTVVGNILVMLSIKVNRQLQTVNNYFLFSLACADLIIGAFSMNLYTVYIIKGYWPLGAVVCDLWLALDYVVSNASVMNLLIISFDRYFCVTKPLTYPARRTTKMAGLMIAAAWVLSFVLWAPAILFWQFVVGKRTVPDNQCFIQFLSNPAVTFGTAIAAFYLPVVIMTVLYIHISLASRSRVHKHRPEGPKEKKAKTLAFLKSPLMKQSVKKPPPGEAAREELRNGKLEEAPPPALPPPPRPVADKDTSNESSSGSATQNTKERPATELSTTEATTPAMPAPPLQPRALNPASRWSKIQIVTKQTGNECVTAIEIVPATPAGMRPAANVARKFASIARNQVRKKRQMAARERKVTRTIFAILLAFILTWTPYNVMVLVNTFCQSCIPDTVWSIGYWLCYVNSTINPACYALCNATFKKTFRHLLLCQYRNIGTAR
Put plainly: mAChR M4 cell-based functional assay (calcium flux, antagonist mode). The conditions noted are these: for IC50: Human M4/Gqi5 CHO-K1 cells, decrease of acetylcholine response; for Emin (% ACh maximum at 30 μM): Human M4. The method, then: Human or rat M4 cDNA, along with the chimeric G protein Gqi5, were transfected into Chinese hamster ovary (CHO-K1) cells purchased from the American Type Culture Collection using Lipofectamine2000. M4/Gqi5/CHO cells were grown in Ham's F-12 medium containing 10% heat-inactivated fetal bovine serum (FBS), 20 mM HEPES, 500 μg/mL G418 sulfate, and 200 μg/mL Hygromycin B.
For high throughput measurement of agonist-evoked increases in intracellular calcium, CHO-K1 cells stably expressing muscarinic receptors were plated in growth medium lacking G418 and hygromycin at 15,000 cells/20 μL/well in Greiner 384-well black-walled, tissue culture (TC)-treated, clear-bottom plates (VWR). Cells were incubated overnight at 37° C. and 5% CO2. The next day, cells were washed using an ELX 405 (BioTek) with assay buffer; the final volume was then aspirated to 20 μL. Next, 20 μL of a 2.3 μM stock of Fluo-4/acetoxymethyl ester (Invitrogen, Carlsbad, CA), prepared as a 2.3 mM stock in DMSO and mixed in a 1:1 ratio with 10% (w/v) Pluronic F-127 and diluted in assay buffer, was added to the wells and the cell plates were incubated for 50 min at 37° C. and 5% CO2. Dye was removed by washing with the ELX 405 and the final volume was aspirated to 20 μL. Compound master plates were formatted in a 10 point concentration-response curve (CRC) format (1:3 dilutions) in 100% DMSO with a starting concentration of 10 or 1 mM using a BRAVO liquid handler (Agilent). Test compound CRCs were then transferred to daughter plates (240 nL) using the Echo acoustic plate reformatter (Labcyte, Sunnyvale, CA) and then diluted into assay buffer (40 μL) to a 2× stock using a Thermo Fisher Combi (Thermo Fisher Scientific, Waltham, MA).
Calcium flux was measured using the Functional Drug Screening System (FDSS) 6000 or 7000 (Hamamatsu Corporation, Tokyo, Japan) as an increase in the fluorescent static ratio. Compounds were applied to cells (20 μL, 2×) using the automated system of the FDSS at 2 seconds into the protocol and the data were collected at 1 Hz. At 143 s, 10 μL of an EC20 concentration of the muscarinic receptor agonist acetylcholine was added (5×), followed by the addition of 12 μL of an […] concentration of acetylcholine at the 268 s time point (5×). Agonist activity was analyzed as a concentration-dependent increase in calcium mobilization upon compound addition. Positive allosteric modulator activity was analyzed as a concentration-dependent increase in the EC20 acetylcholine response. Antagonist activity was analyzed as a concentration-dependent decrease in the EC80 acetylcholine response; for the purposes of the tables herein, an IC50 (inhibitory concentration 50) was calculated as a concentration-dependent decrease of the response elicited by an […] concentration of acetylcholine. Concentration-response curves were generated using a four-parameter logistical equation in XLFit curve fitting software (IDBS, Bridgewater, NJ) for Excel (Microsoft, Redmond, WA) or Prism (GraphPad Software, Inc., San Diego, CA) or the Dotmatics software platform (Dotmatics, Bishop's Stortford, UK).
Compounds were synthesized as described above. Activity (IC50 and Emin) was determined in the mAChR M4 cell-based functional assay as described above and the data are shown in Table 1.

On to `CN1[C@@H]2C[C@@H](OC(=O)[C@H](CO)c3ccccc3)C[C@H]1[C@@H]1O[C@@H]12` [scopolamine], for which, in test [1] (M4 KO mice), the “reduction of haloperidol-induced catalepsy” value was “ineffective”. For the same compound, the “reversal of haloperidol-induced catalepsy” value in test [1] (WT mice) is listed as “completely reversed”. In the test with M4 knockout mice, the locomotor-activating effects entry was “dramatically reduced”.

Turning to `O=c1cc(-c2ccc(N[C@H]3C[C@@H]4CN(CC5CCOCC5)C[C@@H]4C3)nn2)ccn1C(F)F` [A6, 1-(difluoromethyl)-4-(6-(((3aR,5s,6aS)-2-((tetrahydro-2H-pyran-4-yl)methyl)octahydrocyclopenta[c]pyrrol-5-yl)amino)pyridazin-3-yl)pyridin-2(1H)-one], on Human M4, the IC50 turned out to be 5.9 nM and the “Emin (% ACh maximum at 30 μM)” value is recorded as 9%.

Consider `[2H]C([2H])(C1CCOCC1)N1C[C@H]2C[C@H](Nc3ccc(-c4cc(F)c(=O)n(C)c4)nn3)C[C@H]2C1` [A18, 3-fluoro-1-methyl-5-(6-(((3aR,5s,6aS)-2-((tetrahydro-2H-pyran-4-yl)methyl-d2)octahydrocyclopenta[c]pyrrol-5-yl)amino)pyridazin-3-yl)pyridin-2(1H)-one], for which, at Human M4, the IC50 came out at 11.4 nM and the “Emin (% ACh maximum at 30 μM)” value is listed as 4%.

With `[2H]C([2H])(C1CCOCC1)N1C[C@H]2C[C@H](Nc3ccc(-c4ccn(C)c(=O)c4)nn3)C[C@H]2C1` [A1, 1-methyl-4-(6-(((3aR,5s,6aS)-2-((tetrahydro-2H-pyran-4-yl)methyl-d2)octahydrocyclopenta[c]pyrrol-5-yl)amino)pyridazin-3-yl)pyridin-2(1H)-one], on Human M4, the IC50 was 81 nM and the “Emin (% ACh maximum at 30 μM)” value worked out at 5%.
